This is an account of results in patent publication US5712148A (Synaptic Pharmaceutical Corporation, priority 1995, dated 1998).

Experiment [1] has as its system dog betaine/GABA transporter. The conditions noted are these: data from Yamauchi et al., 1992; estimated from one or two concentrations of inhibitor; cited from earlier work.
The target of experiment [2] is T1, hS1a (human betaine/GABA transporter, hBGT) (Homo sapiens, UniProt P48065).
T1 sequence (P48065 1-614 C10Y): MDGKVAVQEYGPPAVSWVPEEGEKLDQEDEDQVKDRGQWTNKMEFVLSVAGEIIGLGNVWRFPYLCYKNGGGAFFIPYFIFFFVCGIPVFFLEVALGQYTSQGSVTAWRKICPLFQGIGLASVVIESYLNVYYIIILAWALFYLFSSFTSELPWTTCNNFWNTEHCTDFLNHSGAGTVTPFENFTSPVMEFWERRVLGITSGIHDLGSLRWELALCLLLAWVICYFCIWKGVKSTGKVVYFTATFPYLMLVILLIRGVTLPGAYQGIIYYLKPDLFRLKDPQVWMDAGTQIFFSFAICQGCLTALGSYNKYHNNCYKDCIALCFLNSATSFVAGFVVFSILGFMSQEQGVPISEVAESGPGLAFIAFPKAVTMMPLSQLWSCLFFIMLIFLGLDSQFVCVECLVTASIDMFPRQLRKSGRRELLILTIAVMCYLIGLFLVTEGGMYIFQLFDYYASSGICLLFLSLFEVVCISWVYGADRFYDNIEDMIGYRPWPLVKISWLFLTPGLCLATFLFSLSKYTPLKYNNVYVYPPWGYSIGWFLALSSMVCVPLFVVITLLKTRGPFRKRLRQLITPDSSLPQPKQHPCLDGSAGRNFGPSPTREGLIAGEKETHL
The experiment can be described thus: Inhibition of specific [^3 H]GABA uptake in COS7 (transient) or LMtk- (stable; hS1a-3) cells expressing hS1a. It is filed as cell-based. Set-up: Translation of a long open reading frame predicts a protein of 614 amino acids with 12 putative transmembrane domains; expressed in transfected cells. The conditions noted are these: for potency at hS1a vs dog and mouse transporters, in words: comparison across clones; for inhibition at 100 µM / inhibition at 500 µM: read-out: % Inhibition of specific [^3 H]GABA uptake; for inhibitory potency at hS1a in words: inhibition of [^3 H]GABA uptake; for IC50: estimated from data for one or two concentrations of inhibitor (Table 1), not corrected for [^3 H]GABA concentration. On the procedure: (§1) Transport was also measured in suspension. The details of this method will described in detail in a subsequent publication (Borden et al., manuscript in preparation). Briefly, transient (COS-7) or stable (LM) transfectants were removed from culture plates with trypsin/EDTA, and transferred to suspension culture. The cells were grown in a temperature-controlled shaking incubator, using a medium containing methylcellulose. To measure transport the cells were washed by centrifugation, and resuspended in HBS. The assay was performed in 96-well microtiter plates (total volume=0.25 ml/well). […] Cell-associated radioactivity retained on the filters was determined by scintillation counting.

In experiment [3] the test system is mouse betaine/GABA transporter. The conditions noted are these: data from Lopez-Corcuera et al., 1992; estimated from one or two concentrations of inhibitor; cited from earlier work.
The subject of experiment [4] is mouse betaine/GABA transporter. Description: Inhibition at mouse betaine/GABA transporter clone (literature comparison). It is filed as cell-based. The conditions noted are these: comparison across clones. On the procedure:
(§2) For example, the dog and mouse clones were expressed in oocytes, whereas we employed COS-7 or LMtk^- fibroblasts for the human clone. Additionally, we measured transport for 10 minutes at 37° C., while the dog clone was assayed for 30 minutes at 25° C. […] Another important factor is our use of suspension cultures.

The next experiment deals with T2, GAT-3 (Rattus norvegicus, UniProt P31647).
T2 sequence (P31647 1-627): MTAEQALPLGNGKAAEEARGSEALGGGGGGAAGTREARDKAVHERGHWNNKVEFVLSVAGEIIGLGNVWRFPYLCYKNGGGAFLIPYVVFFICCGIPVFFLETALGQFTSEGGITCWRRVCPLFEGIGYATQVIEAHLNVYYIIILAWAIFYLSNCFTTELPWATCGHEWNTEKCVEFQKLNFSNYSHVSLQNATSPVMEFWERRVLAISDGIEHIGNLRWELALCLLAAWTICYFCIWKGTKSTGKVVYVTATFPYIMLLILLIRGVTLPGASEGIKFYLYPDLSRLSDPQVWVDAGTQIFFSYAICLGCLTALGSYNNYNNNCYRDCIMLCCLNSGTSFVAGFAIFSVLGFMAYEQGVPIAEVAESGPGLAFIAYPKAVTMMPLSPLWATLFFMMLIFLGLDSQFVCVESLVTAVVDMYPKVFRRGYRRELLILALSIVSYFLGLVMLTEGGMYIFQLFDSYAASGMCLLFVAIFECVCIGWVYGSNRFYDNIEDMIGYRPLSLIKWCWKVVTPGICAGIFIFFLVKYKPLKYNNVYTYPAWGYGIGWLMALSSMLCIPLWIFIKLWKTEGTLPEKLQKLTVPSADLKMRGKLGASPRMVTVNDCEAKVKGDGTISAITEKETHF
The experiment can be described thus: Affinity of GABA at GAT-3, suspension vs attached cells. It is filed as cell-based. The conditions noted are these: Borden, unpublished. On the procedure: as §2

The test system of experiment [5] is dog betaine/GABA transporter. As to conditions: Yamauchi et al., 1992, cited from earlier work.
The target of experiment [6] is T1, hS1a (human betaine/GABA transporter, hBGT). As to conditions: in words. On the procedure:
as §1, §2

The target in the next experiment is T3, GAT-2 (Rattus norvegicus, UniProt P31646).
T3 sequence (P31646 1-602): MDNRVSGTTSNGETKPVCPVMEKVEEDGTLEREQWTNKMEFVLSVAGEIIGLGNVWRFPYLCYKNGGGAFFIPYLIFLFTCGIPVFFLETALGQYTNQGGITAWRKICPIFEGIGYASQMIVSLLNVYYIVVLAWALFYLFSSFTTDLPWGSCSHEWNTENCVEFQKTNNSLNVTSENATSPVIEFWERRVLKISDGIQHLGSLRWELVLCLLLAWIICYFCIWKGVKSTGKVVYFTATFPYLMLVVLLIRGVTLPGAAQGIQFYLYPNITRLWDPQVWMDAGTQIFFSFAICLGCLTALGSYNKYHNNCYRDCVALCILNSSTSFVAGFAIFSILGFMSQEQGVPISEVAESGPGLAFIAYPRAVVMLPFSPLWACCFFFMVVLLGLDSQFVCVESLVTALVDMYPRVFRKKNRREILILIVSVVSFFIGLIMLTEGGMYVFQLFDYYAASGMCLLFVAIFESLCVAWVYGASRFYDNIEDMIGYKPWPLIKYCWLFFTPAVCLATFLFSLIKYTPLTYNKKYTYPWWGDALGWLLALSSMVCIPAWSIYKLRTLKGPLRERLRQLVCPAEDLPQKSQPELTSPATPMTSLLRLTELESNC
The experiment can be described thus: Affinity of GABA at GAT-2, suspension vs attached cells. The conditions noted are these: Borden, unpublished. Format: cell-based. The text has this: […]. […] Another important factor is our use of suspension cultures. […]. Liu et al., 1992a).

“And” between values parts separate entries of the source, which are not always exact repeats. Equal entries are not always repeated. Where two headings read alike, the source gives them in different places.

`O=C(O)C1CCCNC1` (centres unmarked) [nipecotic acid]: in experiment [1], the half-inhibitory concentration (IC50) was 4700 µM. Besides, in experiment [2], the “potency at hS1a vs dog and mouse transporters, in words” value is “more potent at hS1a than at either of the other two transporters”; the inhibition at 100 µM was 34 ± 19%.
On to `Cc1ccsc1C(=CCCN1CCC[C@@H](C(=O)O)C1)c1sccc1C` [(R)-Tiagabine], for which, in experiment [2], the “inhibitory potency at hS1a in words” value is on record as “weak inhibitors” and the inhibition at 100 µM is 12 ± 7%.
Consider `C[N+](C)(C)CC(=O)O` [betaine], for which the IC50 in experiment [3] is 206 µM; in experiment [2] (read-out: IC50 (human)), 258 µM and 150 to 250 µM. The inhibition at 500 µM in experiment [2] was 66 ± 15%.
On to `C=C[C@H]1C[N@@]2CC[C@H]1C[C@@H]2[C@@H](O)c1ccnc2ccc(OC)cc12` [quinidine], for which the IC50 in experiment [3] was 49 µM. In addition, the IC50 in experiment [2] (IC50 (human)) was 488 µM and ~50 µM. For the same molecule, in experiment [2], the inhibition at 100 µM was 92% and the inhibition at 500 µM was 85%.
As for “hydroxynipecotic acid [OH-nipecotic acid]”, the IC50 in experiment [2] (10 min, listed as Hydroxynipecotic acid, 10 min, read-out: IC50 (human)) is greater than 1000 µM; in experiment [2] (10 min, read-out: IC50 (human)), 1150 µM. Further, the “inhibitory potency at hS1a in words” value in experiment [2] was “weak inhibitors”. Moreover, in experiment [2] (inhibitor 100 μM, 50 nM [^3 H]GABA, 10 minutes, 37° C., mean ± SEM), the “% Inhibition of specific [^3 H]GABA uptake” value is 8 ± 8%.
For the molecule `O=C(CCc1ccc(O)cc1)c1c(O)cc(O)cc1O` [phloretin], in experiment [4], the “potency at mouse BGT vs dog or human clones, in words” value is on record as “more potent at the mouse BGT than at the dog or human clones”. The concentration for half-maximal inhibition (IC50) was 37 µM in experiment [3], 200 µM in experiment [1] and 258 µM in experiment [2] (read-out: IC50 (human)). In experiment [2], the inhibition at 500 µM was 66%.
On to `NCC[C@H](N)C(=O)O` [L-DABA, L-(2,4)diaminobutyric acid], for which, in experiment [2], the inhibition at 100 µM was 24 ± 24%.
Regarding `NCCC(=O)O` [β-alanine], the IC50 in experiment [3] is 1900 µM; in experiment [1] it was 2400 µM; in experiment [2] (read-out: IC50 (human)) it was 138 µM and 150 to 250 µM. Also, the “potency at hS1a vs dog and mouse transporters, in words” value in experiment [2] is reported as “more potent at hS1a than at either of the other two transporters”. Also, in experiment [2], the inhibition at 100 µM was 42 ± 22%.
On to `N[C@@H]1CCC[C@H](C(=O)O)C1` (relative stereo) [ACHC, cis-3-aminocyclohexanecarboxylic acid], for which, in experiment [2], the “inhibitory potency at hS1a in words” value was “weak inhibitors” and the inhibition at 100 µM was 0%.
Take `NCCCC(=O)O` [GABA, γ-aminobutyric acid]: the “increase in affinity of GABA in suspension vs attached cells (GAT-3)” value on GAT-3 was “about 10 fold”. In experiment [5], the “higher affinity of the transporter for GABA than for betaine” value is on record as 4 fold. The “affinity for GABA vs betaine, in words” value in experiment [5] (betaine transporter cloned from MDCK dog kidney cells) is listed as “higher affinity for GABA than for betaine”. Also, the “affinity of hBGT for GABA vs other GABA transporters” value in experiment [6] is on record as “lower than that of other GABA transporters”. The “increase in affinity of GABA in suspension vs attached cells (GAT-2)” value on GAT-2 is “about 10 fold”.
Regarding `O=C(O)C1=CCCNC1` [guvacine], the IC50 is 2800 µM in experiment [3] and 1900 µM in experiment [2] (read-out: IC50 (human)). For the same molecule, the “inhibitory potency at hS1a in words” value in experiment [2] was “weak inhibitors”. In addition, in experiment [2], the inhibition at 100 µM was 5 ± 5%.

As usually defined, the IC50 is the concentration that gives 50% inhibition. As a reminder, the inhibition is the relative decrease from the control value, in per cent.
